The text below walks through data of ChEMBL document CHEMBL1152119, “4-(3-furyl)-2-(4-methylpiperazino)pyrimidines: Potent 5-HT2A receptor antagonists” (Bioorg Med Chem Lett, 1997).

One assay deals with Mus musculus. As to the kind of experiment: Inhibitory dose against (+/-)DOI induced (2.5 mg/kg, ip) head twitch response in mice. The settings on record: read-out: ID50 (the source's name). The assay is classed as functional.
Assay [1] has as its system Rattus norvegicus. As to the kind of experiment: Percent activity for blocking of discriminative property stimulated by (+/-) DOI in rats at 1 mg/kg(+/-DOI 0.35 mg/kg administered to animals pretreated with compound). The assay is classed as functional.
For assay [2], the system named is Rattus norvegicus. Put plainly: Number of responding rats/number of rats to receive the compound at a dose of 1 mg/kg, +/-DOI 0.35 mg/kg was administered intraperitoneally 60 min before test; 9/9. It counts as functional, organism-based.
Assay [3] relates to Rattus norvegicus. Put plainly: Blocking of discriminative property stimulated by DOI in rats at 1 mg/kg dose, activity expressed as response/min(+/-DOI 0.35 mg/kg administered to animals pretreated with compound). It counts as functional.
For assay [4], the target named is 5-hydroxytryptamine receptor 2A (Rattus norvegicus, UniProt P14842). Put plainly: Displacement of [3H]ketanserin from 5-hydroxytryptamine 2A receptor of rat brain cortex.
Chain of 5-hydroxytryptamine receptor 2A (P14842 whole entry): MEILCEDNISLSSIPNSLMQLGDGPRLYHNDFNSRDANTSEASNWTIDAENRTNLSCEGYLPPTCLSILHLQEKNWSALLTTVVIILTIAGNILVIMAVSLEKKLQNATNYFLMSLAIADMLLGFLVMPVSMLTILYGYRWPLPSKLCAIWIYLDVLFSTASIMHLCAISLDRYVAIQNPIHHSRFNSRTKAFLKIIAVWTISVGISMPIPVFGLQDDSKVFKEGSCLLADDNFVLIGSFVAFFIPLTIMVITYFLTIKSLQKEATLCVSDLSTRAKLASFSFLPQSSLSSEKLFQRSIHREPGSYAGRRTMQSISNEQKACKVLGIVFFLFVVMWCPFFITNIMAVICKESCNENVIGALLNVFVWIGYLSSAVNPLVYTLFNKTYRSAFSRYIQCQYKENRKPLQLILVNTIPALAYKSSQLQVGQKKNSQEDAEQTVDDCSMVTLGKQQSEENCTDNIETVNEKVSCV
Assay [5] concerns the target T1, 5-hydroxytryptamine receptor 1A (Rattus norvegicus, UniProt P19327).
T1 sequence (P19327 whole entry): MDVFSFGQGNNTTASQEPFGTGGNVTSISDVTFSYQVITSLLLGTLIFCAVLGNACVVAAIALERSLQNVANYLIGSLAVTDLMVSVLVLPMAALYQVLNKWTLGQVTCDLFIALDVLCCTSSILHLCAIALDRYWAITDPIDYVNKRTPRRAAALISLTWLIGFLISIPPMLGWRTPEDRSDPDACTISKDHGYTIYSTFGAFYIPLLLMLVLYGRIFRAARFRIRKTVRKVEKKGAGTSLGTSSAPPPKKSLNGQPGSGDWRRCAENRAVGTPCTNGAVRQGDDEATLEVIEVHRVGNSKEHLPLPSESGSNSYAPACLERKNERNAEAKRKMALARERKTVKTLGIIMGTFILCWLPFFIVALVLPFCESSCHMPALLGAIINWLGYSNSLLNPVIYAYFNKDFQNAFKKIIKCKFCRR
Put plainly: Displacement of [3H]8-OH-DPAT binding to 5-hydroxytryptamine 1A receptor of rat brain hippocampus. The assay is classed as tissue-based.

In assay [6] the test system is Rattus norvegicus. As to the kind of experiment: Percent activity for blocking of discriminative property stimulated by (+/-) DOI in rats at 0.25 mg/kg(+/-DOI 0.35 mg/kg administered to animals pretreated with compound). The assay is classed as functional.
Assay [7] deals with Rattus norvegicus. As to the kind of experiment: Percent activity for blocking of discriminative property stimulated by (+/-) DOI in rats at 0.35 mg/kg(+/-DOI 0.35 mg/kg administered to animals pretreated with compound). The assay is classed as functional.
Assay [8] deals with Rattus norvegicus. As to the kind of experiment: Percent activity for blocking of discriminative property stimulated by (+/-) DOI in rats at 0.15 mg/kg(+/-DOI 0.35 mg/kg administered to animals pretreated with compound). It counts as functional.
The test system of assay [9] is Rattus norvegicus. As to the kind of experiment: Blocking of discriminative property stimulated by DOI in rats at 0.25 mg/kg dose, activity expressed as response/min(+/-DOI 0.35 mg/kg administered to animals pretreated with compound). The assay is classed as functional.
The test system of assay [10] is Rattus norvegicus. As to the kind of experiment: Blocking of discriminative property stimulated by DOI in rats at 0.35 mg/kg dose, activity expressed as response/min(+/-DOI 0.35 mg/kg administered to animals pretreated with compound). The assay is classed as functional.
For assay [11], the system named is Rattus norvegicus. As to the kind of experiment: Blocking of discriminative property stimulated by DOI in rats at 0.15 mg/kg dose, activity expressed as response/min(+/-DOI 0.35 mg/kg administered to animals pretreated with compound). It counts as functional.
Assay [12] concerns Rattus norvegicus. As to the kind of experiment: Percent activity for blocking of discriminative property stimulated by (+/-) DOI in rats at 20 mg/kg(+/-DOI 0.35 mg/kg administered to animals pretreated with compound). It counts as functional.
In assay [13] the test system is Rattus norvegicus. As to the kind of experiment: Number of responding rats/number of rats to receive the compound at a dose of 20 mg/kg, +/-DOI 0.35 mg/kg was administered intraperitoneally 60 min before test; 6/6. It counts as functional, organism-based.
In assay [14] the test system is Rattus norvegicus. Put plainly: Blocking of discriminative property stimulated by DOI in rats at 20 mg/kg dose, activity expressed as response/min(+/-DOI 0.35 mg/kg administered to animals pretreated with compound). The assay is classed as functional.
In assay [15] the test system is Rattus norvegicus. As to the kind of experiment: Percent activity for blocking of discriminative property stimulated by (+/-) DOI in rats at 10 mg/kg(+/-DOI 0.35 mg/kg administered to animals pretreated with compound). It counts as functional.
Assay [16] concerns Rattus norvegicus. As to the kind of experiment: Number of responding rats/number of rats to receive the compound at a dose of 10 mg/kg, +/-DOI 0.35 mg/kg was administered intraperitoneally 60 min before test; 8/8. The assay is classed as functional, organism-based.
Assay [17] relates to Rattus norvegicus. As to the kind of experiment: Blocking of discriminative property stimulated by DOI in rats at 10 mg/kg dose, activity expressed as response/min(+/-DOI 0.35 mg/kg administered to animals pretreated with compound). The assay is classed as functional.
Assay [18] has as its system Rattus norvegicus. As to the kind of experiment: Percent activity for blocking of discriminative property stimulated by (+/-) DOI in rats at 5 mg/kg(+/-DOI 0.35 mg/kg administered to animals pretreated with compound). The assay is classed as functional.
Assay [19] concerns Rattus norvegicus. As to the kind of experiment: Number of responding rats/number of rats to receive the compound at a dose of 5 mg/kg, +/-DOI 0.35 mg/kg was administered intraperitoneally 60 min before test; 9/9. The assay is classed as functional, organism-based.
Assay [20] deals with Rattus norvegicus. As to the kind of experiment: Number of responding rats/number of rats to receive the compound at a dose of 10mg/kg, +/-DOI 0.35 mg/kg was administered intraperitoneally 60 min before test; 6/6. It counts as functional, organism-based. Further details: dose 0.35 mg/kg.
Assay [21] has as its system Rattus norvegicus. As to the kind of experiment: Blocking of discriminative property stimulated by DOI in rats at 5 mg/kg dose, activity expressed as response/min(+/-DOI 0.35 mg/kg administered to animals pretreated with compound). It counts as functional.
Assay [22] has as its system Rattus norvegicus. As to the kind of experiment: Number of responding rats/number of rats to receive the compound at a dose of 10 mg/kg, +/-DOI 0.35 mg/kg was administered intraperitoneally 60 min before test; 7/7. It counts as functional, organism-based.
Assay [23] deals with Rattus norvegicus. As to the kind of experiment: Percent activity for blocking of discriminative property stimulated by (+/-) DOI in rats at 15 mg/kg(+/-DOI 0.35 mg/kg administered to animals pretreated with compound). It counts as functional.
Assay [24] concerns Rattus norvegicus. Put plainly: Number of responding rats/number of rats to receive the compound at a dose of 15mg/kg, +/-DOI 0.35 mg/kg was administered intraperitoneally 60 min before test; 7/7. The assay is classed as functional, organism-based. The arrangement: dose 0.35 mg/kg.
In assay [25] the test system is Rattus norvegicus. Put plainly: Blocking of discriminative property stimulated by DOI in rats at 15 mg/kg dose, activity expressed as response/min(+/-DOI 0.35 mg/kg administered to animals pretreated with compound). The assay is classed as functional.

pKi: −log10 of the molar value. The source made the active and inactive calls. The calls are words filed in the database; no cut-off is given here.

`CN1CCC(=C2c3ccccc3C=Cc3ccccc32)CC1` [CYPROHEPTADINE]: in the assay with Mus musculus, the ED50 amounted to 0.4 mg/kg. For the same compound, in the assay on Rattus norvegicus [1], the Activity came out at 7.1%. Besides, the No. of animals entry in the assay on Rattus norvegicus [2] is “Active”. In addition, the Response in the assay on Rattus norvegicus [3] turned out to be 85.8 min⁻¹.
With `Cc1cc(-c2ccoc2)nc(N2CCN(C)CC2)n1`, the figures for the pKi in assay [4] and in [5] were 7.30 and 6.58, respectively.
`CN1CCN(c2nc(-c3cccs3)cc(-c3cccs3)n2)CC1`: the figures for the pKi in [4] and in assay [5] were 8.10 and 6.01, respectively.
The like results for `CN1CCN(c2nccc(-c3cccs3)n2)CC1` were, in that order, 6.68 and 6.32.
The like results for `CN1CCN(c2nccc(-c3ccccc3)n2)CC1` were, in that order, 5.68 and 6.21.
The like results for `CN1CCN(c2nccc(-c3ccco3)n2)CC1` were, in that order, 6.13 and 6.09.
For `COc1cc(CC(C)N)c(OC)cc1I` (racemic), the Activity with Rattus norvegicus [6] was found to be 63.1%; with Rattus norvegicus [7], 100%; in the assay with Rattus norvegicus [8], 37.5%. Further, the Response in the assay with Rattus norvegicus [9] is 79.5 min⁻¹; with Rattus norvegicus [10], 74.7 min⁻¹; in the assay on Rattus norvegicus [11], 81.3 min⁻¹.
For the compound `CN1CCN(c2nccc(-c3ccoc3)n2)CC1`, the pKi in [4] is 8.00; in assay [5] it was 6.15. In addition, the ED50 in the assay on Mus musculus came to 9.7 mg/kg. Further, in the assay with Rattus norvegicus [12], the Activity amounted to 6.6%. The No. of animals result in the assay with Rattus norvegicus [13] is “Active”. In addition, in the assay with Rattus norvegicus [14], the Response is 84.7 min⁻¹.
For the compound `CN1CCN(c2nc(-c3ccoc3)cc(-c3ccco3)n2)CC1`, the pKi in assay [4] was 7.89; in assay [5], 6.38. In addition, the ED50 in the assay with Mus musculus was 2.7 mg/kg. In addition, the Activity with Rattus norvegicus [15] was 4%. Moreover, the No. of animals result in the assay with Rattus norvegicus [16] was “Active”. For the same compound, the Response in the assay on Rattus norvegicus [17] was 85.1 min⁻¹.
For the compound `CN1CCN(c2nc(-c3ccoc3)cc(-c3ccoc3)n2)CC1`, the pKi in [4] was 8.10; in assay [5], 6.21. In addition, the ED50 in the assay on Mus musculus came to 2.4 mg/kg. Further, the Activity came out at 2.8% in the assay with Rattus norvegicus [15] and 31.1% in the assay on Rattus norvegicus [18]. Also, the No. of animals result with Rattus norvegicus [19] and with Rattus norvegicus [20] was “Active” each time. The figures for the Response with Rattus norvegicus [17] and in the assay with Rattus norvegicus [21] were 72.5 min⁻¹ and 84.3 min⁻¹, respectively.
In the case of `CN1CCN(c2nc(-c3ccccc3)cc(-c3ccoc3)n2)CC1`, the figures for the negative logarithm of the Ki (pKi) in assay [4] and in assay [5] were 8.05 and 5.87, respectively. Further, the ED50 with Mus musculus stood at 3.9 mg/kg. Besides, the Activity in the assay on Rattus norvegicus [15] worked out at 7.2%. Moreover, the No. of animals entry in the assay on Rattus norvegicus [22] is “Active”. The Response in the assay with Rattus norvegicus [17] was found to be 86.6 min⁻¹.
As for `CN1CCN(c2nc(-c3ccoc3)cc(-c3cccs3)n2)CC1`, the pKi was 8.00 in assay [4] and 5.65 in assay [5]. For the same compound, the ED50 with Mus musculus turned out to be 4.2 mg/kg. For the same compound, the Activity in the assay on Rattus norvegicus [15] amounted to 47.3%; with Rattus norvegicus [23], 11.2%. For the same compound, the No. of animals result with Rattus norvegicus [16] and in the assay on Rattus norvegicus [24] was “Active” each time. In addition, the Response in the assay with Rattus norvegicus [17] worked out at 60.3 min⁻¹; in the assay with Rattus norvegicus [25], 66.2 min⁻¹.
